Assay results taken from patent publication US20040063156A1, “Materials and methods relating to the diagnosis and treatment of diabetes and obesity” (Rodaris Pharmaceuticals Limited, priority 1996, published 2004).

Test: Urinary excretion of IPG P-type in diabetic patients treated with metformin
Format: in vivo, human
Conditions: overweight/obese NIDDM patients on metformin, urine, FIGS. 5A,B
Source text: A cross-sectional study was undertaken with random spot samples collected at outpatients clinics. The patients included NIDDM subjects controlled by diet alone, by sulphonylureas, by metformin, by insulin or a combination of any of these treatments. Only a limited number of IDDM subjects were available. In the present survey, male subjects were used, this avoided complications arising from varying hormone profiles in women of different ages, in particular with or without HRT or contraceptive pills. […] In addition to the measurement of IPG P-type and IPG A-type in urine the following clinical data was made available: […]

SMILES: CN(C)C(=N)N=C(N)N [metformin]
- effect on pattern of excretion of IPG P-type: fails to restore the pattern of excretion of IPG P-type to normal
